Key:
[1] = Solubility of indibulin in solvents; assay type: physicochemical
[2] = Bioavailability on peroral administration in customary presentation forms; assay type: in vivo
tubulin = conditions: cited from earlier work

In the case of `O=C(Nc1ccncc1)C(=O)c1cn(Cc2ccc(Cl)cc2)c2ccccc12` [indibulin, N-(pyridin-4-yl)-[1-(4-chlorobenzyl)indol-3-yl]-glyoxylamide], the “solubility in various organic solvents” value ([1]; dimethylformamide, dimethyl sulfoxide and N-methylpyrrolidone) is reported as “Adequate solubility”, the “solubility in highly concentrated organic acids” value ([1]; greater than 50% by weight, e.g. acetic acid or lactic acid) is reported as “relatively good solvents” and the “solubility in hydrophilic solvents” value ([1]; water, methanol, ethanol and isopropanol) is reported as “virtually insoluble”. The bioavailability ([2]; micronized active compound processed to oral presentation forms (suspensions, capsules or tablets)) was “comparatively low”, the bioavailability ([2]; perorally in customary presentation forms, e.g. powder, granule, tablet or capsule) was “low” and the “in vitro and in vivo activity as a tubulin inhibitor” value (tubulin) was “significant”.

From patent US20060040991A1, “Pharmaceutical presentation form for oral administration of a poorly soluble active compound, process for its preparation and kit” (Baxter International Inc., priority 2004, published 2006)
